From ChEMBL document CHEMBL1201862, “PubChem BioAssay data set” (2004)
Each block holds one compound with its values, some of them ahead of it. Active and inactive are the calls of the source.

Columns and labels:
[1] = Cytotoxicity screening for potential Inhibitors of Bacterial Capsule Biogenesis. [Related pubchem assays (depositor defined):AID488970]; format: functional
[2] = molecular target: T1, Histone-lysine N-methyltransferase NSD2 (Homo sapiens, UniProt O96028); format: biochemical
T1 sequence (O96028 whole entry): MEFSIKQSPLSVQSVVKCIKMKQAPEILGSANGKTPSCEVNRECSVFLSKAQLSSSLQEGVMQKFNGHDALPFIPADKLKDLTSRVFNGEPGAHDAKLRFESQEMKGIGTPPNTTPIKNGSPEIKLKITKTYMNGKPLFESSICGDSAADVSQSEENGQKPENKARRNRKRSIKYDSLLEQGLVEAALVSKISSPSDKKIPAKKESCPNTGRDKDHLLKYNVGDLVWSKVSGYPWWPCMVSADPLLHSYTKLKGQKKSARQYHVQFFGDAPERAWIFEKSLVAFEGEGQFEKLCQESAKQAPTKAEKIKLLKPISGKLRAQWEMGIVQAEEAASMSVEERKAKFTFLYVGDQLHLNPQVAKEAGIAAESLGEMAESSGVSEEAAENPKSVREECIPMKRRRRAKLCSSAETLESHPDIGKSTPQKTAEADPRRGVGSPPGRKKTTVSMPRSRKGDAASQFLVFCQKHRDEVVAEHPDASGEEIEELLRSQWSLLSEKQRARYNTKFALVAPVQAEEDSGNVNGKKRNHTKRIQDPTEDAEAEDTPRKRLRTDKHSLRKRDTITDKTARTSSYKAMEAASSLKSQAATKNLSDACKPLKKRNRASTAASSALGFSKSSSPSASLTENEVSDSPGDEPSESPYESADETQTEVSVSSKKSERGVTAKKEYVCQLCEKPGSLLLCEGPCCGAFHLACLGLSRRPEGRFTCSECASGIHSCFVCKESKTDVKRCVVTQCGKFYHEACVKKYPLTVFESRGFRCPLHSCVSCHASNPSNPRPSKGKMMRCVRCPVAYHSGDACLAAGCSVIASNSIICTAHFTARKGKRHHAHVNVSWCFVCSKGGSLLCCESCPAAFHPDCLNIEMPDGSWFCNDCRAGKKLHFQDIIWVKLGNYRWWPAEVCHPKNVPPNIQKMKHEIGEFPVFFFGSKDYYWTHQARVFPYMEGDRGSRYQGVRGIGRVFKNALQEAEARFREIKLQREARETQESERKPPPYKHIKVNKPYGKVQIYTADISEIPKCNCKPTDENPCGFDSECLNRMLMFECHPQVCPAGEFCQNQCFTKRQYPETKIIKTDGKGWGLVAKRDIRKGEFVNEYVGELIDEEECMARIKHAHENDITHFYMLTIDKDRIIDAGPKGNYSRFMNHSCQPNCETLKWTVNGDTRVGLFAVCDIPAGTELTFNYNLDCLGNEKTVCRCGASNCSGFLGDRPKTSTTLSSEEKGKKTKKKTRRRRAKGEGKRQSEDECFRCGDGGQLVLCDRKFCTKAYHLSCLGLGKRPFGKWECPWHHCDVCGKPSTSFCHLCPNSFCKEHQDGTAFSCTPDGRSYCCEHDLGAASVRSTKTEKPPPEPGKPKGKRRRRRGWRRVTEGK

Estrogen receptor beta = Estrogen receptor beta (Homo sapiens, UniProt Q92731); experiment: blockers of SRC-3 recruitment to ERβ – biochemical, ELISA, streptavidin-HRP readout, orthogonal assay, confirmation (AID 1060)
[3] = molecular target: T2, RNA-binding protein pos-1 (Caenorhabditis elegans, UniProt G5EF15); experiment: disruptors of C. elegans POS-1 RNA interaction – biochemical, fluorescence polarization, dose response (AID 1964);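 further: purified POS-1 fused to maltose binding protein made in E. coli; potency of compounds blocking POS-1 binding to fluorescent RNA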
T2 sequence (G5EF15 whole entry): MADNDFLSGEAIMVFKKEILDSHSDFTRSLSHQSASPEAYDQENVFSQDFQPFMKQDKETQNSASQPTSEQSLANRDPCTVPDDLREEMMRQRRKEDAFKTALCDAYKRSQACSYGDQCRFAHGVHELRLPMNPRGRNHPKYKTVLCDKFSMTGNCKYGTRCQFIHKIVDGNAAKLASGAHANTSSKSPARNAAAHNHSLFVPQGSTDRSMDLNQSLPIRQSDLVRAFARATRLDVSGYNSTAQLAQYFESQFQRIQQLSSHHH

[4] = molecular target: T3, Zinc finger protein mex-5 (Caenorhabditis elegans, UniProt Q9XUB2); experiment: potency of MEX-5 RNA-binding blockers – biochemical, C. elegans, fluorescence polarization, dose response (AID 1960)
T3 sequence (Q9XUB2 whole entry): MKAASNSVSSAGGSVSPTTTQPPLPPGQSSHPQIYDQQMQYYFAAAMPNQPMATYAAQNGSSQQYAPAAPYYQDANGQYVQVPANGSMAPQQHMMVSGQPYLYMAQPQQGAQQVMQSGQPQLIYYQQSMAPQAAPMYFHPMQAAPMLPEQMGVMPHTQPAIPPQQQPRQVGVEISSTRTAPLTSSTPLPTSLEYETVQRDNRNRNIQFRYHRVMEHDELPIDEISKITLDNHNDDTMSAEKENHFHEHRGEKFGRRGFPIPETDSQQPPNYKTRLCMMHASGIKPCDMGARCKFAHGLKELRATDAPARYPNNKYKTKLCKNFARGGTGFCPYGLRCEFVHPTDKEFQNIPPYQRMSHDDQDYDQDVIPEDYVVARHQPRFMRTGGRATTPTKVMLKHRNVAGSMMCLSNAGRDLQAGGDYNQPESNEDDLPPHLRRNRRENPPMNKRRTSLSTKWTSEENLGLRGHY

Estrogen receptor = molecular target: T4, Estrogen receptor (Homo sapiens, UniProt P03372);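 further: potency for inhibiting coactivator peptide recruitment to the receptor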
T4 sequence (P03372 whole entry): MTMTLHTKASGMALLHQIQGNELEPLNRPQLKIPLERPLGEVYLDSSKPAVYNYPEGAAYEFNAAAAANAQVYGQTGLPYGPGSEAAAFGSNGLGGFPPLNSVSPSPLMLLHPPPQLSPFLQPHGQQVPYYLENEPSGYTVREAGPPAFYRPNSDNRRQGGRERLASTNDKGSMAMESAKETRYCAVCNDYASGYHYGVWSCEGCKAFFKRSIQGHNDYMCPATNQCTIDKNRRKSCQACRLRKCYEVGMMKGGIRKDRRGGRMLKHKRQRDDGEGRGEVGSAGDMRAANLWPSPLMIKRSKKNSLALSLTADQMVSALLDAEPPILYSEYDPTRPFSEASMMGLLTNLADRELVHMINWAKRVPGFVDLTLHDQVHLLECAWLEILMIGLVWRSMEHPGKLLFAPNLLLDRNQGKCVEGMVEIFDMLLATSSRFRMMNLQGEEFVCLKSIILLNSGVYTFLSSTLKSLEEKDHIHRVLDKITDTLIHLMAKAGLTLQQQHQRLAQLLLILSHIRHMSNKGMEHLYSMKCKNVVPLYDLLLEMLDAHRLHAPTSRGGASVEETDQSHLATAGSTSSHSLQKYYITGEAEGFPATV

[5] = molecular target: Melanin-concentrating hormone receptor 1 (Homo sapiens, UniProt Q99705); experiment: Late-stage fluorescence-based counterscreen for antagonists of the G-protein coupled receptor 7 (GPR7): cell-based dose response assay to identify antagonists of the melanin-concentrating hormone receptor 1 (MCHR1). [Related pubchem assays (depositor defined):AID1861, AID1880, AID1952, AID2148, AID2251, AID2257, AID485339]; format: functional;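 further: stimulated with 30 nM MCH peptide agonist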
[6] = molecular target: T5, Neuropeptides B/W receptor type 1 (Homo sapiens, UniProt P48145); experiment: human NPBW1 receptor blockade, IC50 – cell-based, fluorescence, dose response, late-stage follow-up (AID 463251); format: functional
T5 sequence (P48145 whole entry): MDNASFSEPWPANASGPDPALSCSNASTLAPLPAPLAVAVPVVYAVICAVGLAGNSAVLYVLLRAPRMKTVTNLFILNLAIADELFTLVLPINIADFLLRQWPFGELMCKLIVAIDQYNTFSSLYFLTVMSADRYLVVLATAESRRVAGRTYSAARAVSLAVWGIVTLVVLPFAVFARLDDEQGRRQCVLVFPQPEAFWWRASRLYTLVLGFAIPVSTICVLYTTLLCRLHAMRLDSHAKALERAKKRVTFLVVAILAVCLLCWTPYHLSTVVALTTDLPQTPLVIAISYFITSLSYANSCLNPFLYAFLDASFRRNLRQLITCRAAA

[7] = molecular target: 72 kDa type IV collagenase (Homo sapiens, UniProt P08253); experiment: Dose Response validation of uHTS RPN11 inhibitor hits using a MMP-2 Fluorescence assay.; format: functional
Prothrombin = Prothrombin (Bos taurus, UniProt P00735); experiment: thrombin protease inhibitors – biochemical, fluorescence polarization, uHTS hits, dose response (AID 602369); format: functional
[8] = molecular target: G-protein coupled receptor 35 (Homo sapiens, UniProt Q9HC97); experiment: inhibition of zaprinast-stimulated GPR35 beta-arrestin translocation – imaging, U2OS, beta-arrestin-GFP, zaprinast agonist, primary screen (AID 2058); format: functional;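 further: antagonist potency meaning inhibition of agonist-induced arrestin redistribution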
[9] = molecular target: 26S proteasome non-ATPase regulatory subunit 14 (Homo sapiens, UniProt O00487); experiment: inhibition of proteasome subunit RPN11 – biochemical, fluorescence polarization, uHTS hits, confirmation (AID 602368); format: functional
Trypanosoma cruzi = experiment: anti-trypanosomal activity in host cells – cell-based, plate reader, dry powder, set 3, dose response (AID 493197); format: functional
[10] = molecular target: Transitional endoplasmic reticulum ATPase (Homo sapiens, UniProt P55072); experiment: p97 ATPase inhibitors, dose response, biochemical (AID 1534)
[11] = molecular target: Transitional endoplasmic reticulum ATPase (Homo sapiens, UniProt P55072, C522A); experiment: C522A mutant p97 ATPase inhibitors, dose response, counter-screen for p97 inhibitor project, biochemical, luminescence (AID 1544)
Aminopeptidase N = molecular target: T6, Aminopeptidase N (Plasmodium falciparum FcB1/Columbia, UniProt O96935); experiment: malaria alanyl aminopeptidase activity blockers – biochemical, fluorogenic H-Leu-NHMec substrate, 1536-well (AID 1445); design: species or system Plasmodium falciparum 3D7, 3D7
T6 sequence (O96935 whole entry): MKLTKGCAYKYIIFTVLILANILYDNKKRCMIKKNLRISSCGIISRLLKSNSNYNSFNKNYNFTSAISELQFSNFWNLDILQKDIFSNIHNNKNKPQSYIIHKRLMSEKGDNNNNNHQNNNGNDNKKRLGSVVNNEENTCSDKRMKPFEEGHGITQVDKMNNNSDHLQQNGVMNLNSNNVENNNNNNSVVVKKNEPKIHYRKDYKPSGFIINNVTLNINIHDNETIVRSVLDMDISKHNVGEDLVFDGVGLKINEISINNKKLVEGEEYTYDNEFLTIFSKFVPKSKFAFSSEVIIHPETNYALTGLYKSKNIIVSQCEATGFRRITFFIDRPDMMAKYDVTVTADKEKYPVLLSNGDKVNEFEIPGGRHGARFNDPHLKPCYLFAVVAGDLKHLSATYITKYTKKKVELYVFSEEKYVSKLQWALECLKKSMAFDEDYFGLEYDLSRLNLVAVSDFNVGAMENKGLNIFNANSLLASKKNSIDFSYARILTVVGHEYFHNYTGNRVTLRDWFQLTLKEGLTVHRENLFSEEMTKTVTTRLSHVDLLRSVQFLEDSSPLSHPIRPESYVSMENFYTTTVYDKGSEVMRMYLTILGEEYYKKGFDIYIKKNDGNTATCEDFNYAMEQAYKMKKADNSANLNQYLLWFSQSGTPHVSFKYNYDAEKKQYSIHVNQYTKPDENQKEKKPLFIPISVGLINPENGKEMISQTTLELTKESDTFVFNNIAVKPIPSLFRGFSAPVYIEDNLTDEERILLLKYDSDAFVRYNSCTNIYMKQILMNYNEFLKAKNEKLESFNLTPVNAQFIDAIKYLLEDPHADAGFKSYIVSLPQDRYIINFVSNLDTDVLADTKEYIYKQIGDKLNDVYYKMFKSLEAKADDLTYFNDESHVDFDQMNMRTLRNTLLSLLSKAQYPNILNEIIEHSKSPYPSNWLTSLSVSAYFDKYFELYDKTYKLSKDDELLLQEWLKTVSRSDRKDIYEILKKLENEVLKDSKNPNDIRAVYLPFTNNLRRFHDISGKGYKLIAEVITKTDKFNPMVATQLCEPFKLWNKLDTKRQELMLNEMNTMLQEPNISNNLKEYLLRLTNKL

[12] = molecular target: Signal transducer and activator of transcription 3 (Homo sapiens, UniProt P40763); experiment: STAT3 activation with BCL3 mRNA and toxicity – cell-based, […], BCL3 qPCR, cytotoxicity, late-stage follow-up, panel member STAT3 Activation (AID 2049)
Bcl-2-like protein 10 = Bcl-2-like protein 10 (Homo sapiens, UniProt Q9HD36); experiment: Bcl-B/TR3 peptide binding disruption – biochemical, fluorescence polarization, FITC-TR3 peptide, selectivity assay for Bfl-1 inhibitor project, primary screen (AID 748);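 further: fluorescence polarization from a fluorescein-labelled TR3 peptide binding purified Bcl-B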
[13] = molecular target: Lysosomal acid glucosylceramidase (Homo sapiens, UniProt P04062); experiment: Dose response cell-based high throughput screening assay to identify enhancers of beta-glucosidase activity. [Related pubchem assays: 784 ]; format: functional
Sequence of Lysosomal acid glucosylceramidase (P04062 whole entry): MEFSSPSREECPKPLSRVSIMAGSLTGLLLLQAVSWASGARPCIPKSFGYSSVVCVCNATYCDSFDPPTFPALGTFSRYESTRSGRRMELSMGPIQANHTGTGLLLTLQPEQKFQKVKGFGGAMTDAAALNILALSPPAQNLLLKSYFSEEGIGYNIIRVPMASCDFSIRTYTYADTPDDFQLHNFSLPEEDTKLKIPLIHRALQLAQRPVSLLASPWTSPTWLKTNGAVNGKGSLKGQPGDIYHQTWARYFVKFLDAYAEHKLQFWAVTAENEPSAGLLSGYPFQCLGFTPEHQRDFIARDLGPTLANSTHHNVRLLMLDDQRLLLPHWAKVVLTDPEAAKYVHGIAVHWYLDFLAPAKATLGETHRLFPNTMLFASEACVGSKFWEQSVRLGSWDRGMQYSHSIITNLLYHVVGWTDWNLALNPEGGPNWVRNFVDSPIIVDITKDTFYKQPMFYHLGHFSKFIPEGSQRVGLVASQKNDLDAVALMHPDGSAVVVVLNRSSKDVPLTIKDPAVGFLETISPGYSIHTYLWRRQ

Sequence of G-protein coupled receptor 35 (Q9HC97 whole entry): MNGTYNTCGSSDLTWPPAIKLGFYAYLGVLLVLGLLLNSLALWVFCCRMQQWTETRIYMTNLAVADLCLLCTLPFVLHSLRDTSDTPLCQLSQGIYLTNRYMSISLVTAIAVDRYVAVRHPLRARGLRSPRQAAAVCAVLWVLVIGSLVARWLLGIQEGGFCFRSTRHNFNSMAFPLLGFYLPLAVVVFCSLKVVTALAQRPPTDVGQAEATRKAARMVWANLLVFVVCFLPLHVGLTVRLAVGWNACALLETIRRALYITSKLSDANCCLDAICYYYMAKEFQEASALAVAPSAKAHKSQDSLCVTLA
Sequence of Transitional endoplasmic reticulum ATPase (Homo sapiens, UniProt P55072) (P55072 whole entry): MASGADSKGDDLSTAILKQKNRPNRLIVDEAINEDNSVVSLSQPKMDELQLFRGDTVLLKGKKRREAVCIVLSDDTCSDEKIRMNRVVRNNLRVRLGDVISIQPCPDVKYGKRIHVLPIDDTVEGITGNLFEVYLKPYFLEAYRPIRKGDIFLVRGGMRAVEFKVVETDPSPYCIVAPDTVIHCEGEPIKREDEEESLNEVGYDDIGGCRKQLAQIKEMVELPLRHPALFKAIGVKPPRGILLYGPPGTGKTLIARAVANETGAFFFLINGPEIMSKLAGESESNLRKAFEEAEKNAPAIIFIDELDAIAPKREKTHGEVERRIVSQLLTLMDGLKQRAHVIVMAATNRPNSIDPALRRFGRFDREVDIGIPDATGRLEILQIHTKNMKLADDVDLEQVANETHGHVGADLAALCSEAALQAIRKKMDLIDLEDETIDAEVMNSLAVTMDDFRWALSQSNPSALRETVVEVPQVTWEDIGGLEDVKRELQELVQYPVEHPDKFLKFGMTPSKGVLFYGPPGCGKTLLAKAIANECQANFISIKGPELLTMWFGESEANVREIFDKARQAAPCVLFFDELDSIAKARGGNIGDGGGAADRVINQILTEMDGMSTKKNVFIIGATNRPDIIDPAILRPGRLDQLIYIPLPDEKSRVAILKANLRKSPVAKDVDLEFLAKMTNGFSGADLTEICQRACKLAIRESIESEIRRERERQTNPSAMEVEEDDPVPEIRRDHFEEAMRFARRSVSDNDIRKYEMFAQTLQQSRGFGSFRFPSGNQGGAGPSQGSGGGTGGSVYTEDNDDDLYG
Sequence of 26S proteasome non-ATPase regulatory subunit 14 (O00487 whole entry): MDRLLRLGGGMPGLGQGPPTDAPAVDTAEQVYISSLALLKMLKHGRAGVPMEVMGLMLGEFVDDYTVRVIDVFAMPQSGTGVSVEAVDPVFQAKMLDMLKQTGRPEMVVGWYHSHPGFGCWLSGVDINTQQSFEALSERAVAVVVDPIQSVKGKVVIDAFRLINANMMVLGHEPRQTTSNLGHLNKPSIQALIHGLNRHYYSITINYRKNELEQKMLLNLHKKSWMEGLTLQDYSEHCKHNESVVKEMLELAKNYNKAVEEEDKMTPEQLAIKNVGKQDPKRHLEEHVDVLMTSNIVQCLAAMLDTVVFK
Sequence of Signal transducer and activator of transcription 3 (P40763 whole entry): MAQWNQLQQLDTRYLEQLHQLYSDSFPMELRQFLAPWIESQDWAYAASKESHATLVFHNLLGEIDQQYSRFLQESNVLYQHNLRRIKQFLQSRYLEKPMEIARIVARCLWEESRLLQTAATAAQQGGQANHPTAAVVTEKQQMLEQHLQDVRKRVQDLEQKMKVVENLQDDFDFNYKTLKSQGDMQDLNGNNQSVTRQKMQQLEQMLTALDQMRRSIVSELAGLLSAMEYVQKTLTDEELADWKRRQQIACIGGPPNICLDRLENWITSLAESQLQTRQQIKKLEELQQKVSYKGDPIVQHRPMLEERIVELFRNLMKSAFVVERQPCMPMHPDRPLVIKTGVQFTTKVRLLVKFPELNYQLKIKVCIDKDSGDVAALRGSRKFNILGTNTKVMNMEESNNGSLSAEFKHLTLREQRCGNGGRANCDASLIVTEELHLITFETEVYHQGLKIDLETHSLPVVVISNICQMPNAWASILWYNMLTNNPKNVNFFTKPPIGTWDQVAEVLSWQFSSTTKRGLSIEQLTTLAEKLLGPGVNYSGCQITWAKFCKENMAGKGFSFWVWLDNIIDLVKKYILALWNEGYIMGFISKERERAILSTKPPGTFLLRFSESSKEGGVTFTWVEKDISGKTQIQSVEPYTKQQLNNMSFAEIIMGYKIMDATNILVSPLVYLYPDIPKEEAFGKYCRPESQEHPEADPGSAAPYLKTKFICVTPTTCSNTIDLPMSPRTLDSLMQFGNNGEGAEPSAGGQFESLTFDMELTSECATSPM
Sequence of Transitional endoplasmic reticulum ATPase (Homo sapiens, UniProt P55072, C522A) (P55072 2-806 C522A limits assumed): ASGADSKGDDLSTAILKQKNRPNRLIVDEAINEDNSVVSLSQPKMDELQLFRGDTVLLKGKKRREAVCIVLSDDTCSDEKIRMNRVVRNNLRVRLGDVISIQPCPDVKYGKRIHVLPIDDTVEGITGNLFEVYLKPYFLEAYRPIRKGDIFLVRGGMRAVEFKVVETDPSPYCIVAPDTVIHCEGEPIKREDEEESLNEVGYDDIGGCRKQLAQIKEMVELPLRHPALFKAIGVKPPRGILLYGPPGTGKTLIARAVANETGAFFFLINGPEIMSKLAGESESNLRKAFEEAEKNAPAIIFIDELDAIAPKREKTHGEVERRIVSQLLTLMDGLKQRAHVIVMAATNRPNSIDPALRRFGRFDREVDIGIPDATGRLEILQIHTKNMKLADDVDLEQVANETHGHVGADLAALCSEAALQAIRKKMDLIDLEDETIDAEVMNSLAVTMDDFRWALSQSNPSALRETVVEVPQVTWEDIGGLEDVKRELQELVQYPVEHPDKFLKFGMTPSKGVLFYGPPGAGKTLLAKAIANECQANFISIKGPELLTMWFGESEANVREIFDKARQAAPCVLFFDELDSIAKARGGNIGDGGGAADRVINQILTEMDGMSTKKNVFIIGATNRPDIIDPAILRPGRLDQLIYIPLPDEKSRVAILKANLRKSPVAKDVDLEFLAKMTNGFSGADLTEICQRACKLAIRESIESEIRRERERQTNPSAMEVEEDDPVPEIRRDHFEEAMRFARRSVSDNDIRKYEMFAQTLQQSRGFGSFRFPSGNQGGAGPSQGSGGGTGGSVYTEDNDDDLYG
Sequence of Bcl-2-like protein 10 (Q9HD36 whole entry): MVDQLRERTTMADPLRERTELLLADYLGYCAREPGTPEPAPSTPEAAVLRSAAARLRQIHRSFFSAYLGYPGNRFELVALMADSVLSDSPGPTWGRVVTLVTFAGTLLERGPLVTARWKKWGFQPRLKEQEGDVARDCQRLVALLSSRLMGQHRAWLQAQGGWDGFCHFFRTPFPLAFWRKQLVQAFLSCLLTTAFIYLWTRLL
Sequence of 72 kDa type IV collagenase (P08253 whole entry): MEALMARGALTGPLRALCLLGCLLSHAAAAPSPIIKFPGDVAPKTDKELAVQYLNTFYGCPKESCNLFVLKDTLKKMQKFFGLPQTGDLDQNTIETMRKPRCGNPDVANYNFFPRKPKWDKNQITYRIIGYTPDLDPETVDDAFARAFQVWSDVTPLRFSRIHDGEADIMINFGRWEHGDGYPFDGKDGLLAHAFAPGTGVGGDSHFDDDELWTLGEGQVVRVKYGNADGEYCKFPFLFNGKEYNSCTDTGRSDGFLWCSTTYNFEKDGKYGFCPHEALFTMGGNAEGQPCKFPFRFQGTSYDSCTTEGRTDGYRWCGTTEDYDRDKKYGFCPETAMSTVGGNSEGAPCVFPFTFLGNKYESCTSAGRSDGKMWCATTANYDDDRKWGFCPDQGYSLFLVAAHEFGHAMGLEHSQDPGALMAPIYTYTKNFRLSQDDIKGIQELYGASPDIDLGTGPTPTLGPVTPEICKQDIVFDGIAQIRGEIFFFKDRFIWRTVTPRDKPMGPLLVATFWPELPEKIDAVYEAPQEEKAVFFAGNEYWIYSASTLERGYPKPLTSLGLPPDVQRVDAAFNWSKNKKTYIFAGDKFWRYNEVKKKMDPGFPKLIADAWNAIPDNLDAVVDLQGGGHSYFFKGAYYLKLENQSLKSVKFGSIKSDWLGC
Sequence of Estrogen receptor beta (Q92731 whole entry, the tested form may be a part): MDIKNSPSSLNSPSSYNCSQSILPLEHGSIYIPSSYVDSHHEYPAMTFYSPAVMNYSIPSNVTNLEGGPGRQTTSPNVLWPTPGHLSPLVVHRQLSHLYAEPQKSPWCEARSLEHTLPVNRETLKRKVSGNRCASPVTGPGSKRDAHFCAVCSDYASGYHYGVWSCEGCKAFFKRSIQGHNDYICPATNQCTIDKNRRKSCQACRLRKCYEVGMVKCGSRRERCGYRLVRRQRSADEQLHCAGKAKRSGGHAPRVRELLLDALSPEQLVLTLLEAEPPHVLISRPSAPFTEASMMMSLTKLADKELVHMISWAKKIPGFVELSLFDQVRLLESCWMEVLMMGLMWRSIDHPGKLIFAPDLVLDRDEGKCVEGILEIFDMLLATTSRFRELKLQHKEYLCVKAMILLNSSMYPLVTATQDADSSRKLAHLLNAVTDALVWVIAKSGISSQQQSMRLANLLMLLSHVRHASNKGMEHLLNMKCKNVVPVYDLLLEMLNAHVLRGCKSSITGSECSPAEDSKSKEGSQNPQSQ

Compound: O=C(/C=C/c1ccco1)Nc1cccc(C(=O)Nc2ccccc2C(=O)O)c1
AC50 [2]: 18.6 µM (active)
IC50 [7]: 97.4 µM (active)
IC50 (Prothrombin): 39.8 µM (active)
IC50 [8]: < 0.5 µM (active)
IC50 [9]: 23.1 µM (active)

Compound: CCCN1CCC(N2CCCC(C(=O)N(C)CCc3ccc(OC)c(OC)c3)C2)CC1 (stereo not given)
AC50 (Trypanosoma cruzi): 16.4 µM (active)

Compound: COc1ccccc1C(=O)Oc1cc(N)n(S(=O)(=O)c2ccc(C)cc2)n1
IC50 [10]: > 50 µM (not active)
IC50 [11]: > 50 µM (not active)
IC50 (Aminopeptidase N): 99.9 µM (active)

Compound: CCCc1cc(C(=O)Nc2cc(OC)c(Cl)cc2OC)no1
EC50 [12]: 0.00815 µM (active)

Compound: COc1ccccc1NCCC(=O)OCC(=O)NCc1ccco1
IC50 (Bcl-2-like protein 10): 69.1 µM (inactive)

Compound: CC(C)n1c(S)nc2c1c(=O)[nH]c(=O)n2C
EC50 [13]: > 50 µM (not active)

Continued, in another order:

AC50 [2]: 16.2 µM (active)
IC50 (Estrogen receptor beta): > 50 µM (not active)
EC50 [3]: 4.36 µM (active)
EC50 [4]: 6.85 µM (active)
IC50 (Estrogen receptor): 21 µM (active)
Compound: CCC1=NN2C(=N)/C(=C\c3ccc(SCc4ccco4)o3)C(=O)N=C2S1
CC50 [1]: > 100 µM (active)

IC50 [5]: 11.1 µM (inactive)
IC50 [6]: 2.8 µM (active)
Compound: O=c1c(Oc2ccc(O)cc2)c(Cl)cnn1-c1ccccc1
